Experimental data: patent US9919998B2, “Antibacterial agents: Nα-aroyl-N-aryl-phenylalaninamides” (priority 2014, dated 2018)
In brackets after ≈: the same amount, converted by molar mass. Several values for one entry are separate records, joined by “and”; a condition that tells them apart may be missing. Equal entries are not always repeated. Where two headings read alike, the source gives them in different places.

How the values were obtained:
[1] = test system: Mycobacterium tuberculosis H37Rv; experiment: Microplate Alamar Blue assay (MABA) MIC, M. tuberculosis; format: cell-based; settings: read-out: MIC Mycobacterium tuberculosis H37Rv
Source text: (§1) Minimal inhibitory concentrations (MICs) in Mycobacterium tuberculosis H37Rv and Mycobacterium avium ATCC 25291 were quantified using microplate Alamar Blue assays as described (MABA; [Collins, L. & Franzblau, S. (1997) Microplate Alamar Blue assay versus BACTEC 460 system for high-throughput screening of compounds against Mycobacterium tuberculosis and Mycobacterium avium. Antimicrob. Agents Chemother. 41, 1004-1009]).

[2] = test system: Mycobacterium avium ATCC 25291; experiment: Microplate Alamar Blue assay (MABA) MIC, M. avium; format: cell-based; settings: ATCC25291, M. avium ATCC 25291
Source text: as §1

[3] = test system: Mycobacterium smegmatis ATCC 19420; experiment: Broth microdilution MIC, M. smegmatis; format: cell-based; settings: Mycolicibacterium smegmatis
Source text: (§2) MICs in Mycobacterium smegmatis ATCC 19420 and Mycobacterium smegmatis ATCC 19420 derivatives were quantified using broth microdilution assays as described [Clinical and Laboratory Standards Institute (CLSI/NCCLS) (2009) Methods for Dilution Antimicrobial Susceptibility Tests for Bacteria That Grow Aerobically; Approved Standard, Eighth Edition. CLIS Document M07-A8 (CLIS, Wayne Pa.)].

[4] = test system: AAP1-resistant mutants, derivatives of M. smegmatis ATCC19420; experiment: MICs in AAP1-resistant mutants (resistance and cross-resistance levels); format: cell-based, Mycobacterium smegmatis; settings: MICs in AAP1-resistant mutants
[5] = test system: rifampin-resistant mutants, derivatives of M. smegmatis ATCC19420; experiment: MICs in rifampin-resistant mutants (cross-resistance levels); format: cell-based, Mycobacterium smegmatis
Source text: as §2

[6] = test system: Vero E6 ATCC CRL1586 cells; experiment: Mammalian-cell cytotoxicity, minimal cytotoxic concentration (CellTiter96); format: cell-based
Method: Minimal cytotoxic concentrations (MCCs) against mammalian cells in culture were determined using Vero E6 ATCC CRL1586 cells and the CellTiter96 assay kit (Promega, Inc.). […]

[7] = test system: Mycobacterium smegmatis, Mycobacterium tuberculosis, and Mycobacterium avium; experiment: organism not typed; format: cell-based; settings: read-out: MICs, inhibition of mycobacterial growth
[8] = molecular target: Mycobacterium tuberculosis RNA polymerase (Mycobacterium tuberculosis, UniProt P9WGY7+P9WGY9); experiment: Run-off transcription assay with Mycobacterium tuberculosis RNA polymerase (radiochemical); format: biochemical
Method: Run-off transcription assays with Mycobacterium tuberculosis RNA polymerase were performed using reaction mixtures containing (10 μl): 0-100 μM test compound, 75 nM Mycobacterium tuberculosis RNA polymerase core enzyme, 300 nM Mycobacterium tuberculosis σ^A, 20 nM 130 bp DNA fragment containing positions −100 to −1 of the bacteriophage […] N25 promoter followed by positions +1 to +30 of the lacUV5-15 promoter of [Mukhopadhyay, J., Kapanidis, A., Mekler, V., Kortkhonjia, E., Ebright, Y., Ebright, R. (2001) Cell 106, 453-463], 25 nM [alpha-^32P]UTP (600 Bq/pmol) for an initial 2 min at 37° C. and 100 μM [alpha-^32P]UTP (6 Bq/pmol) for a subsequent 5 min at 37° C., 100 μM ATP, 100 μM GTP, 100 μM UTP, 100 μM CTP, 40 mM Tris-HCl, pH 8.0, 80 mM NaCl, 5 mM MgCl2, 2.5 mM DTT, and 12.7% glycerol. Reactions were terminated by addition of […] 80% formamide, 10 mM EDTA, 0.04% bromophenol blue, and 0.04% xylene cyanol, followed by heating for 5 min at 90° C. Reaction products were resolved by 15% urea-PAGE, and quantified using a storage-phosphor scanner.

[9] = ATCC19420, M. smegmatis ATCC 19420, read-out: MIC Mycobacterium smegmatis ATCC 19420
[10] = IC50 Mycobacterium tuberculosis RNA polymerase

Chain of Mycobacterium tuberculosis RNA polymerase (P9WGZ1 whole entry, the tested form may be a part): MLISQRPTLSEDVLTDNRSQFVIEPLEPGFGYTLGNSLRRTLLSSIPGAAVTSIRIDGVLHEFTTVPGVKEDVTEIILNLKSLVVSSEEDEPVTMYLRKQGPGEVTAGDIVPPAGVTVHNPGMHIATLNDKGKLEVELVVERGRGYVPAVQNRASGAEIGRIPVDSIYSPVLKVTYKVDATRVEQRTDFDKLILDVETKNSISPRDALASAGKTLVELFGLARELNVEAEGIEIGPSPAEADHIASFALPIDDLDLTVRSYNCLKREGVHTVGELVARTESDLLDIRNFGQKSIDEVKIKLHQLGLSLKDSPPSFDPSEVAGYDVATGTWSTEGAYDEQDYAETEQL
Chain of Mycobacterium tuberculosis RNA polymerase (P9WGY5 whole entry, further chain, the tested form may be a part): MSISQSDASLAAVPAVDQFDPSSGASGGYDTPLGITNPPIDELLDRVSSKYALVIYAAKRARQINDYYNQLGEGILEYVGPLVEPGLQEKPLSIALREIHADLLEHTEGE
Chain of Mycobacterium tuberculosis RNA polymerase (P9WGY9 whole entry, the tested form may be a part): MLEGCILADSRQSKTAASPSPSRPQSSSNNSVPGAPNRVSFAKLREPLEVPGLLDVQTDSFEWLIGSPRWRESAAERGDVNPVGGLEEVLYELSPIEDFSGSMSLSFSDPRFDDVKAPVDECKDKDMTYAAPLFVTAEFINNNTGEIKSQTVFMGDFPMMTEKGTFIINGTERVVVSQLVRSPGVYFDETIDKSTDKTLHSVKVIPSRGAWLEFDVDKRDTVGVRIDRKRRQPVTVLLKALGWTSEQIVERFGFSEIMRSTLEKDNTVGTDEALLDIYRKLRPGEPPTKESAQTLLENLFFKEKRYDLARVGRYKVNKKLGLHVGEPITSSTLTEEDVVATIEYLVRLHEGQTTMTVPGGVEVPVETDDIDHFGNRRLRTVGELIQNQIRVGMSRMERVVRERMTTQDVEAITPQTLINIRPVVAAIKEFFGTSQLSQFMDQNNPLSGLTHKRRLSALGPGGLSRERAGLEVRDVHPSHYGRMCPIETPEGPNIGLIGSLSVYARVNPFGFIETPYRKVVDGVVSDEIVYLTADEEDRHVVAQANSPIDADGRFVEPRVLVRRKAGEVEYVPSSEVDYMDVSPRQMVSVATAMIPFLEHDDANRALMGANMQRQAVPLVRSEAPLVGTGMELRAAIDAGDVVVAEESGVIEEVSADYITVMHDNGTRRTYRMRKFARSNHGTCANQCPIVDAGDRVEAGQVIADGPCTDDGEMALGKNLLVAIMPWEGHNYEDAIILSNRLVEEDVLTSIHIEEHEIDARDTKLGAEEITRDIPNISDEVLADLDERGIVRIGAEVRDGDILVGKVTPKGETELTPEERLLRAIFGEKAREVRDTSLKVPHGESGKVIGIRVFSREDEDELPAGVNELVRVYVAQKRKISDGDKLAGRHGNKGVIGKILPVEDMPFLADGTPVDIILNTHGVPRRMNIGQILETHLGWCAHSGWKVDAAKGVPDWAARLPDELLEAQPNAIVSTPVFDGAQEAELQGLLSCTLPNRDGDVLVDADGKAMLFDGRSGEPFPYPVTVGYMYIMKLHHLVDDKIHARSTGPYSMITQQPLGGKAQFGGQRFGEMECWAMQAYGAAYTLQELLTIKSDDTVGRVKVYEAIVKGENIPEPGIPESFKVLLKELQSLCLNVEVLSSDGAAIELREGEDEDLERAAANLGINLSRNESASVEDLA
Chain of Mycobacterium tuberculosis RNA polymerase (P9WGI1 whole entry, further chain, the tested form may be a part): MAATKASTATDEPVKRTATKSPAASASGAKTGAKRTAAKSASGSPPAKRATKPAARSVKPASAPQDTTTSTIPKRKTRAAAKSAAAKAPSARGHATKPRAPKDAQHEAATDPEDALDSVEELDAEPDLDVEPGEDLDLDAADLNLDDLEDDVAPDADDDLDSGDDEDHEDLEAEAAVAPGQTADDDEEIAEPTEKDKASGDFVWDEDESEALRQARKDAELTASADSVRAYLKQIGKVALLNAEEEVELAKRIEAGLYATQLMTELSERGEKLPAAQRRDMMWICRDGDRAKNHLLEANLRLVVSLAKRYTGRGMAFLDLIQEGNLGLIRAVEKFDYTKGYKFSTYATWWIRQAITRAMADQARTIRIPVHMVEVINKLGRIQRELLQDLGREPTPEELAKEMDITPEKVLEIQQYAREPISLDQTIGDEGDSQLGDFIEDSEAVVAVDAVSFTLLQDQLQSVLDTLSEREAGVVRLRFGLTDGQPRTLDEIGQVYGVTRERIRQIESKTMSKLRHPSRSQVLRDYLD
Chain of Mycobacterium tuberculosis RNA polymerase (P9WGY7 whole entry, the tested form may be a part): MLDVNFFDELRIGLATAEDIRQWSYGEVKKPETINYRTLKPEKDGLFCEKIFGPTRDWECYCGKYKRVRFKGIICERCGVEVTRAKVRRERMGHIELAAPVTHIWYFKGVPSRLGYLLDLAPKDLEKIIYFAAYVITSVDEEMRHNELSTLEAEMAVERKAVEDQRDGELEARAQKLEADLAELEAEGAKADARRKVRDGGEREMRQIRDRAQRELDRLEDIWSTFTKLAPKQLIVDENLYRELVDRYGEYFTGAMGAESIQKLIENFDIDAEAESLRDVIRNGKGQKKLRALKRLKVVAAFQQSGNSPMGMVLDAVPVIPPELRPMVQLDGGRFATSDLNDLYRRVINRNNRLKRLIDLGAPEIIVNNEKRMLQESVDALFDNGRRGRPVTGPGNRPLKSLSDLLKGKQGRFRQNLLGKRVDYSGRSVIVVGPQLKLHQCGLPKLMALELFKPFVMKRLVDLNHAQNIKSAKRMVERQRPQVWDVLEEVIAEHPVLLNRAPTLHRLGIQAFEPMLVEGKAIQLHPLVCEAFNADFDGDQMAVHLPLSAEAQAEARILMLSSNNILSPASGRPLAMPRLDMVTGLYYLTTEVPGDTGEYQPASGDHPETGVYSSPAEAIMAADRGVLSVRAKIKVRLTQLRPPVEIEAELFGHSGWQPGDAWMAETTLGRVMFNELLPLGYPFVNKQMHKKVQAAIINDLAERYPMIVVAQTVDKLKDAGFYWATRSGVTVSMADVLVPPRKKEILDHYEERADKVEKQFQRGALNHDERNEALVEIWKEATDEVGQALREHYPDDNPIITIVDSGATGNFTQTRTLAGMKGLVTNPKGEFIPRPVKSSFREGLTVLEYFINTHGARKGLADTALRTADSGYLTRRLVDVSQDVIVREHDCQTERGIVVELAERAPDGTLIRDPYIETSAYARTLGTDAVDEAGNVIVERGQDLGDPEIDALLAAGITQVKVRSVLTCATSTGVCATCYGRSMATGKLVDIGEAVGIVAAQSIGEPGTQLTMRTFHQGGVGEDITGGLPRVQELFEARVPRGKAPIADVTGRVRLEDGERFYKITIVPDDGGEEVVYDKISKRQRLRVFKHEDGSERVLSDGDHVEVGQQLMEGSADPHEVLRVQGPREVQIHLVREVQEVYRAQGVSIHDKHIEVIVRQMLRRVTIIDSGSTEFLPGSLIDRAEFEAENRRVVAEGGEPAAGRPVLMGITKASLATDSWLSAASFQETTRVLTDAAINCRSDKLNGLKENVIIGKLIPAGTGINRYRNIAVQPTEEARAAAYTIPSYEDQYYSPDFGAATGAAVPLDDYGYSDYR

| Compound | MIC [1] | MIC [2] | MIC [3, 9] | cross-resistance of AAP1-resistant mutants to the compound [4] | cross-resistance of rifampin-resistant mutants to the compound [5] | MCC mammalian cells Vero E6 ATCC CRL1586 [6] | MIC [7] | IC50 [8, 10] | IC50 ([8]; Inhibition of mycobacterial RNA polymerase (IC50s), radiochemical transcription assays, M. tuberculosis RNA polymerase) | MIC ([3]; ATCC19420, read-out: MIC with wild-type rpoB and wild-type rpoC, M. smegmatis ATCC19420 wild type, reference for AAP1-resistant mutants) | hypersensitivity of AAP1-resistant mutants to the compound [4] |
| --- | --- | --- | --- | --- | --- | --- | --- | --- | --- | --- | --- |
| O=C(NC(Cc1ccccc1)C(=O)Nc1cc(F)ccc1N1CCNCC1)c1ccccc1F (racemic) [IX-214, 2-fluoro-N-(1-((5-fluoro-2-(piperazin-1-yl)phenyl)amino)-1-oxo-3-phenylpropan-2-yl)benzamide] | 1.56 µg/mL (≈ 3.36 µM) | 1.56 µg/mL (≈ 3.36 µM) | 0.195 µg/mL (≈ 0.42 µM) | cross-resistance | No rifampin-resistant mutant was found to exhibit cross-resistance | 7 µg/mL | ≥ 0.073 µg/mL |  |  |  |  |
| Cc1ccccc1NC(=O)C(Cc1ccc(O)cc1)NC(=O)c1ccccc1 (stereo not shown) [I-13, N-(3-(4-hydroxyphenyl)-1-oxo-1-(o-tolylamino)propan-2-yl)benzamide] | 12.5 µg/mL (≈ 33.4 µM) | 25 µg/mL (≈ 66.8 µM) | 0.195 µg/mL (≈ 0.521 µM) | cross-resistance | No rifampin-resistant mutant was found to exhibit cross-resistance | 37 µg/mL |  |  |  |  |  |
| Cc1ccc(Cl)cc1NC(=O)C(Cc1ccccc1)NC(=O)c1ccccc1 (stereo not shown) [I-86] | 1.56 µg/mL (≈ 3.97 µM) | 3.12 µg/mL (≈ 7.95 µM) | 0.195 µg/mL (≈ 0.496 µM) |  | No rifampin-resistant mutant was found to exhibit cross-resistance | 13 µg/mL |  | 920 nM |  |  |  |
| Cc1ccc(Cl)cc1NC(=O)C(Cc1ccccc1)NC(=O)c1ccccc1F (stereo not shown) [IX-55, N-(1-((5-chloro-2-methylphenyl)amino)-1-oxo-3-phenylpropan-2-yl)-2-fluorobenzamide] | 1.56 µg/mL (≈ 3.8 µM) | 3.12 µg/mL (≈ 7.61 µM) | 0.39 µg/mL (≈ 0.949 µM) | cross-resistance |  | 10 µg/mL |  | 470 nM |  |  |  |
| COc1ccc(F)cc1NC(=O)C(Cc1ccccc1)NC(=O)c1ccccc1 (stereo not shown) [IX-73, N-(1-((5-fluoro-2-methoxyphenyl)amino)-1-oxo-3-phenylpropan-2-yl)benzamide] | 1.56 µg/mL (≈ 3.98 µM) | 0.78 µg/mL (≈ 1.99 µM) | 0.19 µg/mL (≈ 0.484 µM) | cross-resistance |  | >100 µg/mL |  |  |  |  |  |
| O=C(NC(Cc1ccccc1)C(=O)Nc1ccccc1N1CCNCC1)c1ccccc1F (stereo not shown) [IX-211, 2-fluoro-N-(1-oxo-3-phenyl-1-((2-(piperazin-1-yl)phenyl)amino)-propan-2-yl)benzamide] | 1.56 µg/mL (≈ 3.49 µM) | 1.56 µg/mL (≈ 3.49 µM) | 0.09 µg/mL (≈ 0.202 µM) | cross-resistance |  | 18 µg/mL |  |  |  |  |  |
| Cc1ccccc1C(=O)NC(Cc1ccccc1)C(=O)Nc1ccccc1N1CCNCC1 (stereo not shown) [IX-212, 2-methyl-N-(1-oxo-3-phenyl-1-((2-(piperazin-1-yl)phenyl)amino)-propan-2-yl)benzamide] | 1.56 µg/mL (≈ 3.52 µM) | 1.56 µg/mL (≈ 3.52 µM) | 0.097 µg/mL (≈ 0.219 µM) | cross-resistance |  | 15 µg/mL |  |  |  |  |  |
| O=C(NC(Cc1ccccc1)C(=O)Nc1ccccc1N1CCNCC1)c1cccs1 (stereo not shown) [IX-213, N-(1-oxo-3-phenyl-1-((2-(piperazin-1-yl)phenyl)amino)propan-2-yl)thiophene-2-carboxamide] | 1.56 µg/mL (≈ 3.59 µM) | 0.78 µg/mL (≈ 1.79 µM) | 0.097 µg/mL (≈ 0.223 µM) | cross-resistance |  | 33 µg/mL |  |  |  |  |  |
| O=C(N[C@H](Cc1ccccc1)C(=O)Nc1cc(F)ccc1N1CCNCC1)c1ccccc1F [IX-214a, (R)-2-fluoro-N-(1-((5-fluoro-2-(piperazin-1-yl)phenyl)amino)-1-oxo-3-phenylpropan-2-yl)benzamide] | 0.78 µg/mL (≈ 1.68 µM) | < 0.195 µg/mL | 0.073 µg/mL (≈ 0.157 µM) |  |  |  | ≥ 0.073 µg/mL |  |  |  |  |
| Cc1ccccc1C(=O)NC(Cc1ccccc1)C(=O)Nc1cc(F)ccc1N1CCNCC1 (stereo not shown) [IX-215, N-(1-((5-fluoro-2-(piperazin-1-yl)phenyl)amino)-1-oxo-3-phenylpropan-2-yl)-2-methylbenzamide] | 1.56 µg/mL (≈ 3.39 µM) | 0.78 µg/mL (≈ 1.69 µM) | 0.19 µg/mL (≈ 0.413 µM) | cross-resistance | No rifampin-resistant mutant was found to exhibit cross-resistance | 7 µg/mL |  | 140 nM |  |  |  |
| O=C(NC(Cc1ccccc1)C(=O)Nc1cc(F)ccc1N1CCNCC1)c1cccs1 (stereo not shown) [IX-216, N-(1-((5-fluoro-2-(piperazin-1-yl)phenyl)amino)-1-oxo-3-phenylpropan-2-yl)thiophene-2-carboxamide] | 1.56 µg/mL (≈ 3.45 µM) | 0.78 µg/mL (≈ 1.72 µM) | 0.097 µg/mL (≈ 0.214 µM) | cross-resistance | No rifampin-resistant mutant was found to exhibit cross-resistance | 11 µg/mL |  | 280 nM |  |  |  |
| O=C(NC(Cc1ccccc1)C(=O)Nc1cccc2scnc12)c1ccccc1 (stereo not shown) [IX-235, N-(1-(benzo[d]thiazol-4-ylamino)-1-oxo-3-phenylpropan-2-yl)benz-amide] | 3.12 µg/mL (≈ 7.78 µM) | 6.25 µg/mL (≈ 15.6 µM) | 0.78 µg/mL (≈ 1.94 µM) | cross-resistance |  |  |  |  |  |  |  |
| O=C(N[C@H](Cc1ccccc1)C(=O)Nc1cc(Cl)ccc1N1CCNCC1)c1ccccc1F [IX-274a, (R)—N-(1-((5-chloro-2-(piperazin-1-yl)phenyl)amino)-1-oxo-3-phenylpropan-2-yl)-2-fluorobenzamide] | 0.78 µg/mL (≈ 1.62 µM) | 0.39 µg/mL (≈ 0.811 µM) | 0.073 µg/mL (≈ 0.152 µM) |  |  |  | ≥ 0.073 µg/mL | 17 nM | ≥ 10 nM and 10 to 74 nM |  |  |
| Cc1ccccc1C(=O)NC(Cc1ccccc1)C(=O)Nc1cc(Cl)ccc1N1CCNCC1 (stereo not shown) [IX-275, N-(1-((5-chloro-2-(piperazin-1-yl)phenyl)amino)-1-oxo-3-phenyl-propan-2-yl)-2-methylbenzamide] | 1.56 µg/mL (≈ 3.27 µM) | 0.78 µg/mL (≈ 1.64 µM) | 0.39 µg/mL (≈ 0.818 µM) | cross-resistance |  | 12.5 µg/mL |  | 100 nM |  |  |  |
| COc1ccc(F)cc1NC(=O)C(Cc1ccccc1)NC(=O)c1ccccc1F (stereo not shown) [IX-276, 2-fluoro-N-(1-((5-fluoro-2-methoxyphenyl)amino)-1-oxo-3-phenyl-propan-2-yl)benzamide] | 0.16 µg/mL (≈ 0.39 µM) | 0.78 µg/mL (≈ 1.9 µM) | 0.39 µg/mL (≈ 0.95 µM) | cross-resistance |  |  |  |  |  |  |  |
| NC1CCN(c2ccc(F)cc2NC(=O)C(Cc2ccccc2)NC(=O)c2ccccc2F)CC1 (stereo not shown) [IX-312, N-(1-((2-(4-aminopiperidin-1-yl)-5-fluorophenyl)amino)-1-oxo-3-phenylpropan-2-yl)-2-fluorobenzamide] | 3.13 µg/mL (≈ 6.54 µM) | 3.13 µg/mL (≈ 6.54 µM) | 0.195 µg/mL (≈ 0.407 µM) | cross-resistance |  |  |  |  |  |  |  |
| O=C(NC(Cc1ccccc1)C(=O)Nc1cc(F)ccc1N1CC2CNCC2C1)c1ccccc1F (stereo not shown) [IX-313, 2-fluoro-N-(1-((5-fluoro-2-(hexahydropyrrolo[3,4-c]pyrrol-2(1H)-yl)phenyl)amino)-1-oxo-3-phenylpropan-2-yl)benzamide] | 1.56 µg/mL (≈ 3.18 µM) | 1.56 µg/mL (≈ 3.18 µM) | 0.39 µg/mL (≈ 0.795 µM) | cross-resistance |  |  |  |  |  |  |  |
| CO[C@H]1/C=C/O[C@@]2(C)Oc3c(C)c(O)c4c(O)c(c(/C=N/N5CCN(C)CC5)c(O)c4c3C2=O)NC(=O)/C(C)=C\C=C\[C@H](C)[C@H](O)[C@@H](C)[C@@H](O)[C@@H](C)[C@H](OC(C)=O)[C@@H]1C [rifampin, reference compound] |  |  |  | No AAP1-resistant mutant was found to exhibit cross-resistance |  |  |  |  |  | 3.13 µg/mL (≈ 3.8 µM) | Some AAP1 resistant mutants were found to be hypersensitive |
